Data on 19 compounds can be found in ChEMBL document CHEMBL4043138, “Synthesis of antimalarial amide analogues based on the plant serrulatane diterpenoid 3,7,8-trihydroxyserrulat-14-en-19-oic acid” (Bioorg Med Chem Lett, 2017).

Activity calls are given as the source filed them. No cut-off for these calls is given here. Where only a bound is given, the exact number is not on record here.

In data set [1] the test system is HEK293. Kind of data set: Cytotoxicity against HEK293 cells assessed as cell growth inhibition after 72 hrs by Alamar blue assay. The conditions noted are these: Homo sapiens, HEK293, 72 h. It counts as cell-based. A general note: Resazurin is reduced to fluorescent resorufin, in cell work by metabolically active cells.
A short description of data set [2]: Selectivity ratio of IC50 for Plasmodium falciparum Dd2 to IC50 for Plasmodium falciparum 3D7. The format is functional.
The subject of data set [3] is Plasmodium falciparum. The data set is described as follows: Antimalarial activity against Plasmodium falciparum 3D7 after 72 hrs by DAPI staining-based fluorescence microscopic analysis. It counts as functional. The conditions noted are these: 3D7, 72 h.
Data set [4] is described as follows: (§1) Cytotoxicity against HEK293 cells assessed as cell growth inhibition at 80 uM after 72 hrs by Alamar blue assay relative to control. The format is cell-based. To be noted: human, HEK293 cells; read-out: GI.
For data set [5], the system named is Plasmodium falciparum. The data set is described as follows: Antimalarial activity against Plasmodium falciparum Dd2 after 72 hrs by DAPI staining-based fluorescence microscopic analysis. The format is functional. The conditions noted are these: Dd2, 72 h.
A short description of data set [6]: Selectivity index, ratio of IC50 for HEK293 cells to IC50 for Plasmodium falciparum 3D7. The format is toxicity. The conditions noted are these: human, HEK293 cells versus Plasmodium falciparum 3D7; read-out: Ratio IC50.
Data set [7] has as its system Plasmodium falciparum. Kind of data set: Antimalarial activity against Plasmodium falciparum 3D7 at 10 uM after 72 hrs by DAPI staining-based fluorescence microscopic analysis. It counts as functional.
The test system of data set [8] is HEK293. The data set is described as §1. It counts as cell-based. The conditions noted are these: human, hek293, 72 h, 80 µM.
The test system of data set [9] is HEK293. Kind of data set: Cytotoxicity against HEK293 cells assessed as cell growth inhibition at 40 uM after 72 hrs by Alamar blue assay. To be noted: human, hek293, 72 h. It counts as cell-based.
Data set [10] is described as follows: Cytotoxicity against HEK293 cells assessed as cell growth inhibition at 20 uM after 72 hrs by Alamar blue assay relative to control. It counts as cell-based. The conditions noted are these: human, read-out: GI.
In data set [11] the test system is Plasmodium falciparum. The data set is described as follows: Antimalarial activity against Plasmodium falciparum Dd2 at 80 uM after 72 hrs by DAPI staining-based fluorescence microscopic analysis. The format is functional.

Take `CC(C)=CCC[C@H](C)[C@H]1c2cc(C(=O)NCc3ccc(F)cc3)c(OC(=O)C(C)(C)C)c(OC(=O)C(C)(C)C)c2[C@H](C)C[C@H]1OC(=O)C(C)(C)C`: the results for the IC50 in the data set on HEK293 [1], with Plasmodium falciparum [3] and in the data set on Plasmodium falciparum [5] were 80 µM, 1.79 µM and 6.13 µM, respectively. For the same compound, the Ratio IC50 in data set [2] amounted to 3.4. Besides, the inhibition at 72 h, 80 µM in data set [4] was determined as 44%. Also, in data set [6], the selectivity ratio amounted to 44.

Regarding `CC(=O)O[C@@H]1C[C@@H](C)c2c(cc(C(=O)O)c(O)c2O)[C@@H]1[C@@H](C)CCC=C(C)C`, in the data set on Plasmodium falciparum [7], the result was inactive.

For the compound `CC(C)=CCC[C@H](C)[C@H]1c2cc(C(=O)NCc3ccccc3)c(OC(=O)C(C)(C)C)c(OC(=O)C(C)(C)C)c2[C@H](C)C[C@H]1OC(=O)C(C)(C)C`, the concentration for half-maximal inhibition (IC50) (commonly the midpoint of a concentration-inhibition curve) amounted to 40 µM in the data set with HEK293 [1], 2.12 µM with Plasmodium falciparum [3] and 6.17 µM with Plasmodium falciparum [5]. For the same compound, the Ratio IC50 in [2] was 2.9. For the same compound, in data set [4], the inhibition at 72 h, 80 µM was 82%. Also, the selectivity ratio in data set [6] is 19.

As to `CC(=O)OCc1cc2c(c(O)c1O)[C@H](C)C[C@@H](OC(C)=O)[C@H]2[C@@H](C)CCC=C(C)C`, the concentration for half-maximal inhibition (IC50) is 80 µM in the data set with HEK293 [1], 6.89 µM with Plasmodium falciparum [3] and 8.76 µM with Plasmodium falciparum [5]. For the same compound, in [2], the Ratio IC50 came to 1.3. In addition, the inhibition at 72 h, 80 µM in [4] came out at 59%. Further, the selectivity ratio in data set [6] stood at 11.6.

For `CC(C)=CCC[C@H](C)[C@H]1c2cc(C(=O)NCCN(C)C)c(OC(=O)C(C)(C)C)c(OC(=O)C(C)(C)C)c2[C@H](C)C[C@H]1OC(=O)C(C)(C)C`, the IC50 came out at 14.6 µM in the data set with HEK293 [1], 5.65 µM in the data set with Plasmodium falciparum [3] and 8.76 µM with Plasmodium falciparum [5]. Moreover, in data set [2], the Ratio IC50 came to 1.6. The selectivity ratio in data set [6] is 2.6.

Turning to `CC(C)=CCC[C@H](C)[C@H]1c2cc(C(=O)NCCc3ccc(F)cc3)c(OC(=O)C(C)(C)C)c(OC(=O)C(C)(C)C)c2[C@H](C)C[C@H]1OC(=O)C(C)(C)C`, the results for the IC50 with HEK293 [1], in the data set on Plasmodium falciparum [3] and in the data set with Plasmodium falciparum [5] were 80 µM, 1.25 µM and 3.76 µM, respectively. The Ratio IC50 in [2] stood at 3. Moreover, the “growth inhibition (GI)” value with HEK293 [8] was “Non-Toxic”. Further, in data set [6], the selectivity ratio was > 64.

As for `CC(C)=CCC[C@H](C)[C@H]1c2cc(C(=O)O)c(O)c(OC(=O)C(C)(C)C)c2[C@H](C)C[C@H]1OC(=O)C(C)(C)C`, the values for the 50% inhibitory concentration (IC50) in the data set with HEK293 [1], in the data set with Plasmodium falciparum [3] and in the data set with Plasmodium falciparum [5] were 40 µM, 8.44 µM and 10.2 µM, respectively. For the same compound, in data set [2], the Ratio IC50 stood at 1.2. For the same compound, the inhibition at 72 h, 80 µM in [4] turned out to be 100%. The selectivity ratio in data set [6] is 4.7.

For `CCN(CC)CCCC(C)Nc1ccnc2cc(Cl)ccc12` (stereo not given) [CHLOROQUINE], in the data set with HEK293 [1], the concentration for half-maximal inhibition (IC50) stood at 40 µM. In the data set with HEK293 [9], the “growth inhibition (GI)” value is listed as “Non-Toxic”.

Take `CC(C)=CCC[C@H](C)[C@H]1c2cc(C(=O)NCc3ccc(Cl)cc3)c(OC(=O)C(C)(C)C)c(OC(=O)C(C)(C)C)c2[C@H](C)C[C@H]1OC(=O)C(C)(C)C`: the concentration for half-maximal inhibition (IC50) in the data set with HEK293 [1] is 40 µM; in the data set on Plasmodium falciparum [3], 1.36 µM; in the data set on Plasmodium falciparum [5], 4.96 µM. Moreover, the Ratio IC50 in [2] was found to be 3.6. In addition, the inhibition at 72 h, 80 µM in data set [4] is 86%. Besides, in [6], the selectivity ratio is 29.4.

Take `CC(C)=CCC[C@H](C)[C@H]1c2cc(C(=O)O)c(O)c(O)c2[C@H](C)C[C@H]1O`: in the data set on Plasmodium falciparum [7], the result was inactive.

Take `CC(C)=CCC[C@H](C)[C@H]1c2cc(C(=O)NCCc3ccc(Cl)cc3)c(OC(=O)C(C)(C)C)c(OC(=O)C(C)(C)C)c2[C@H](C)C[C@H]1OC(=O)C(C)(C)C`: the half-inhibitory concentration (IC50) in the data set on HEK293 [1] was 80 µM; with Plasmodium falciparum [3] it was 2.7 µM; with Plasmodium falciparum [5], 5.94 µM. For the same compound, the Ratio IC50 in [2] is 2.2. In addition, the “growth inhibition (GI)” value in the data set with HEK293 [8] is reported as “Non-Toxic”. The selectivity ratio in [6] is > 30.

As for `CC(C)=CCC[C@H](C)[C@H]1c2cc(C(=O)NCc3ccc(Br)cc3)c(OC(=O)C(C)(C)C)c(OC(=O)C(C)(C)C)c2[C@H](C)C[C@H]1OC(=O)C(C)(C)C`, the IC50 was 40 µM in the data set on HEK293 [1], 1.42 µM with Plasmodium falciparum [3] and 5.03 µM in the data set on Plasmodium falciparum [5]. The Ratio IC50 in [2] is 3.6. Further, the inhibition at 72 h, 80 µM in [4] is 71%. Also, in data set [6], the selectivity ratio was 28.

For the compound `C[C@H]1[C@H](OC(=O)CCC(=O)O)O[C@@H]2O[C@@]3(C)CC[C@H]4[C@H](C)CC[C@@H]1[C@@]24OO3` [ARTESUNATE], the IC50 with HEK293 [1] worked out at 10 µM; in the data set with Plasmodium falciparum [5], 0.001 µM. For the same compound, the inhibition at 72 h, 20 µM in [10] stood at 91%. Moreover, in [6], the selectivity ratio was > 11600.

Consider `CC(C)=CCC[C@H](C)[C@H]1c2cc(C(=O)O)c(OC(=O)C(C)(C)C)c(OC(=O)C(C)(C)C)c2[C@H](C)C[C@H]1OC(=O)C(C)(C)C`, for which the half-inhibitory concentration (IC50) in the data set on HEK293 [1] came to 40 µM; in the data set on Plasmodium falciparum [3], 9.97 µM; in the data set on Plasmodium falciparum [5], 18 µM. In addition, in data set [2], the Ratio IC50 was 1.8. Besides, the inhibition at 72 h, 80 µM in data set [4] turned out to be 100%. For the same compound, the selectivity ratio in data set [6] was 4.

For `CC(C)=CCC[C@H](C)[C@H]1c2cc(C(=O)NCCc3ccc(Cl)cc3)c(OC(=O)C(C)(C)C)c(OC(=O)C(C)(C)C)c2[C@H](C)C[C@H]1O`, the figures for the IC50 with HEK293 [1], with Plasmodium falciparum [3] and in the data set on Plasmodium falciparum [5] were 80 µM, 2.44 µM and 4.57 µM, respectively. Moreover, the Ratio IC50 in [2] was determined as 1.9. Moreover, in [4], the inhibition at 72 h, 80 µM stood at 68%. In addition, the selectivity ratio in data set [6] came to 32.

Turning to `COc1ccc(C[C@H](N)C(=O)N[C@H]2[C@@H](O)[C@H](n3cnc4c(N(C)C)ncnc43)O[C@@H]2CO)cc1` [PUROMYCIN], the IC50 turned out to be 0.46 µM in the data set with HEK293 [1], 0.0532 µM in the data set on Plasmodium falciparum [3] and 0.0438 µM in the data set on Plasmodium falciparum [5]. In addition, in data set [2], the Ratio IC50 worked out at 1.16. Further, the selectivity ratio in data set [6] worked out at 9.

Consider `CC(C)=CCC[C@H](C)[C@H]1c2cc(C(=O)O)c(OC(=O)C(C)(C)C)c(OC(=O)C(C)(C)C)c2[C@H](C)C[C@H]1O`, for which the IC50 was 40 µM with HEK293 [1] and 13.6 µM with Plasmodium falciparum [3]. Moreover, the outcome with Plasmodium falciparum [11] was inactive. In addition, the inhibition at 72 h, 80 µM in data set [4] was found to be 70%. Further, the selectivity ratio in data set [6] stood at 2.9.

On to `CC(C)=CCC[C@H](C)[C@H]1c2cc(C(=O)NCCc3ccccc3)c(OC(=O)C(C)(C)C)c(OC(=O)C(C)(C)C)c2[C@H](C)C[C@H]1OC(=O)C(C)(C)C`, for which the IC50 was determined as 80 µM in the data set with HEK293 [1], 1.4 µM with Plasmodium falciparum [3] and 3.63 µM in the data set with Plasmodium falciparum [5]. For the same compound, the Ratio IC50 in data set [2] worked out at 2.6. The “growth inhibition (GI)” value in the data set with HEK293 [8] was “Non-Toxic”. Besides, the selectivity ratio in data set [6] was > 57.

`CC(C)=CCC[C@H](C)[C@H]1c2cc(C(=O)NCCc3ccc(Br)cc3)c(OC(=O)C(C)(C)C)c(OC(=O)C(C)(C)C)c2[C@H](C)C[C@H]1OC(=O)C(C)(C)C`: the half-maximal inhibitory concentration (IC50) came to 80 µM with HEK293 [1], 3.12 µM in the data set with Plasmodium falciparum [3] and 7.42 µM in the data set on Plasmodium falciparum [5]. Further, the Ratio IC50 in data set [2] was 2.4. For the same compound, the “growth inhibition (GI)” value in the data set on HEK293 [8] is “Non-Toxic”. Further, the selectivity ratio in data set [6] is > 26.
